In ChEMBL document CHEMBL5465560, “Selectivity Literature for EUbOPEN Chemogenomic Library” (2024) one finds % of control, % of inhibition and dTM data, which are given here for four compounds.

Molecules are shown by their SMILES.

Test [1] addresses Dual specificity mitogen-activated protein kinase kinase 2 (Homo sapiens) (UniProt P36507). Nature of the test: Selectivity interaction (KinomeScan (DiscoverX)) EUB0001550a MAP2K2. The settings on record: at 1 µM.
Test [2] deals with T1, Mitogen-activated protein kinase kinase kinase 5 (Homo sapiens) (UniProt Q99683).
T1 sequence (whole entry): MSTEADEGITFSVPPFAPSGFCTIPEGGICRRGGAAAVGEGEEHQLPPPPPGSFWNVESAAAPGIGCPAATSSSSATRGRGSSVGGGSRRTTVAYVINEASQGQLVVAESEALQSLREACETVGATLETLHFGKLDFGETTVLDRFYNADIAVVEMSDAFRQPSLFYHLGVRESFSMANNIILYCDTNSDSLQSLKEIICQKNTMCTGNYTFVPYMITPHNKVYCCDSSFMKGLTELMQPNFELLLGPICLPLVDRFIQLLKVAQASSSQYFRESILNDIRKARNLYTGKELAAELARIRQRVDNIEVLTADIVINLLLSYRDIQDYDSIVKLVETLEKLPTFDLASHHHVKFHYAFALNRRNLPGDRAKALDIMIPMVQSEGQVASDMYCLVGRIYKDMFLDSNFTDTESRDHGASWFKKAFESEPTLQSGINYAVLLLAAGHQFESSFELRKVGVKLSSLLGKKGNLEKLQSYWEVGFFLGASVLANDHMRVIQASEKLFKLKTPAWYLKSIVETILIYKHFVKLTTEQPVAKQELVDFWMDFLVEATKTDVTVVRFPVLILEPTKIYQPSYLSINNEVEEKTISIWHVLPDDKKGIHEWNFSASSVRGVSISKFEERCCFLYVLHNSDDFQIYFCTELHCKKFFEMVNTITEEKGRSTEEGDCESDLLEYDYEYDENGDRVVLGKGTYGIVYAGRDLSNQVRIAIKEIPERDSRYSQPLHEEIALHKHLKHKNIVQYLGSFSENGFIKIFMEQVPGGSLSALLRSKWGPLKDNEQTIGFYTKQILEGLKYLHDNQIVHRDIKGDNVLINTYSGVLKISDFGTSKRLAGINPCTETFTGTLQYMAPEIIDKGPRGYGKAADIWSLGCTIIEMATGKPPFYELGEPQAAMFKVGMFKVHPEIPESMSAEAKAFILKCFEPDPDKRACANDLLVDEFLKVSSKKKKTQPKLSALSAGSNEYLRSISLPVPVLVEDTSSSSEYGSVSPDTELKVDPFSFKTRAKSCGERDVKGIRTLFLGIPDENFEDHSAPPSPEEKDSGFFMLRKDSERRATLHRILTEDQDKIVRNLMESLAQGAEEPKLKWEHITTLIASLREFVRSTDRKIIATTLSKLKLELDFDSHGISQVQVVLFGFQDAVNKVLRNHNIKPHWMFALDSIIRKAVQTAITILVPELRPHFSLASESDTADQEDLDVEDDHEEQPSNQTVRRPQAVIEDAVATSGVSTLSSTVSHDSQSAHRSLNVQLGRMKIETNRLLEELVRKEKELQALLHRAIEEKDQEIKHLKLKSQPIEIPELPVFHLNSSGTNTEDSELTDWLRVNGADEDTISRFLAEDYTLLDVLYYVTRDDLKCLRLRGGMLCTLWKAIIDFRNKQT
Nature of the test: Selectivity interaction (Upstate Kinase Profiler service (Millipore)) EUB0000056c MAP3K5. The conditions noted are these: at 1 µM.

Another test addresses T2, Peregrin (Homo sapiens) (UniProt P55201).
T2 sequence (whole entry): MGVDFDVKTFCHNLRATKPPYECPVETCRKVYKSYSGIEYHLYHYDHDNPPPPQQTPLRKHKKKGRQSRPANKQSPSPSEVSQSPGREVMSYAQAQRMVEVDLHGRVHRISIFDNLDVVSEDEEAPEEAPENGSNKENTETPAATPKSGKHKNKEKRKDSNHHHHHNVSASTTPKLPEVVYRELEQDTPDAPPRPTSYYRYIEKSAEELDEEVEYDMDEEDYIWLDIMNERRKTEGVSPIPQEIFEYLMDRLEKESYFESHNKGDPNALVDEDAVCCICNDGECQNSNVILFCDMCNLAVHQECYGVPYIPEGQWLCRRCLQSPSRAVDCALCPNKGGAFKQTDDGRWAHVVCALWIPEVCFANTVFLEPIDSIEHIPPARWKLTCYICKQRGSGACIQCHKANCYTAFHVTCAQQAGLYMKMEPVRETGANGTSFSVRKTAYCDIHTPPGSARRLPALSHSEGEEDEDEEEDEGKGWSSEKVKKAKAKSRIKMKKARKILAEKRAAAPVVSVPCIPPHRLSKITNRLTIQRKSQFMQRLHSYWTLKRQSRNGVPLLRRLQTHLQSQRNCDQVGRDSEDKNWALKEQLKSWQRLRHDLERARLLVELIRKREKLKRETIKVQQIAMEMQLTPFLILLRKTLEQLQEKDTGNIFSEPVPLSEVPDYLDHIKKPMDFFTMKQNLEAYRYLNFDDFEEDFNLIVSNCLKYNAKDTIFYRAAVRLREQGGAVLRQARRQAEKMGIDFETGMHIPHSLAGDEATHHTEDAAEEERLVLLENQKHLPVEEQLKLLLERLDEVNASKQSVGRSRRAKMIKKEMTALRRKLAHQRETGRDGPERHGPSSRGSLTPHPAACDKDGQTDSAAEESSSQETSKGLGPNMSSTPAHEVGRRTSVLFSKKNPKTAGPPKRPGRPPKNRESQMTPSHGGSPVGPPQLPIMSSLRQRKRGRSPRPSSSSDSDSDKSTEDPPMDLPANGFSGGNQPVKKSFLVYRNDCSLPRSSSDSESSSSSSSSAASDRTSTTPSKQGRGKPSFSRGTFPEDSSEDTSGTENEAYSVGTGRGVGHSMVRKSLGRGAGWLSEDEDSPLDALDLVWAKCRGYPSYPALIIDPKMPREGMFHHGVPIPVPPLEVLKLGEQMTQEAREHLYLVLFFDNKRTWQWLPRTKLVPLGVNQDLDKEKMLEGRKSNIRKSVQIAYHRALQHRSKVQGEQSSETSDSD
Nature of the test: Selectivity interaction (Human bromodomain panel (DSF assay)) EUB0000233b BRPF1.

For test [3], the target named is Tyrosine-protein kinase JAK1 (Homo sapiens, UniProt P23458). The experiment in a line: Selectivity interaction (KinomeScan (DiscoverX)) EUB0001079a JAK1. The conditions noted are these: at 1 µM.
Tyrosine-protein kinase JAK1, sequence (P23458 whole entry): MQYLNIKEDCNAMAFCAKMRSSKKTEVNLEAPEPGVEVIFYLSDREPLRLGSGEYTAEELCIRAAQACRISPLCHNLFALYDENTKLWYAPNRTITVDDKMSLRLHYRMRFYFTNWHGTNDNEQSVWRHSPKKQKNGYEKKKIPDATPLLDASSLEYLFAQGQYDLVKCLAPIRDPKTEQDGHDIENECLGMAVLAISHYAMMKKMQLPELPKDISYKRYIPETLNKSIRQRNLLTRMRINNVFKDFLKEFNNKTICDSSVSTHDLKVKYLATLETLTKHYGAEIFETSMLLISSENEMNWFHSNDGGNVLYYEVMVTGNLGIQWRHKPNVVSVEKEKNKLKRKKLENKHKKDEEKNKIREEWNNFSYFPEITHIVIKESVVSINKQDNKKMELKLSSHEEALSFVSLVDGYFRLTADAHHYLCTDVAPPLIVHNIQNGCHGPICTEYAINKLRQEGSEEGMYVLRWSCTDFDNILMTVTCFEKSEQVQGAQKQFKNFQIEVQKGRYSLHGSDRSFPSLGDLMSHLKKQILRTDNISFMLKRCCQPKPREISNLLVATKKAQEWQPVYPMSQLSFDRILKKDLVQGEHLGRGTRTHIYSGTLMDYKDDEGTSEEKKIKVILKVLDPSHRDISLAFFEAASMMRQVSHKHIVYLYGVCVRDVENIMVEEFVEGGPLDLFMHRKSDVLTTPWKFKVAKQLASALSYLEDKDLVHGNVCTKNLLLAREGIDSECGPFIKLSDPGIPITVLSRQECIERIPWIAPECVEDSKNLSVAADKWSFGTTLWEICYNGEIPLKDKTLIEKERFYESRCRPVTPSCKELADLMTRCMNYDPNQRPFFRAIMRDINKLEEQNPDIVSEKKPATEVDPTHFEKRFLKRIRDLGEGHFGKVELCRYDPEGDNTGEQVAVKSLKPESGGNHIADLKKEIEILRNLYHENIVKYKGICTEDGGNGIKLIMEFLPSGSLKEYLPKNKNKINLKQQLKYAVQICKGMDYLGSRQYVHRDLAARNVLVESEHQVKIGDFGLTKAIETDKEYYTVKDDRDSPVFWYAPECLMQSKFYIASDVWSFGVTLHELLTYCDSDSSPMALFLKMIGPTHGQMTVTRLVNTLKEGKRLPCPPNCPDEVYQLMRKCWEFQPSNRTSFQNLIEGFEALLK

Dual specificity mitogen-activated protein kinase kinase 2 (Homo sapiens), sequence (P36507 whole entry): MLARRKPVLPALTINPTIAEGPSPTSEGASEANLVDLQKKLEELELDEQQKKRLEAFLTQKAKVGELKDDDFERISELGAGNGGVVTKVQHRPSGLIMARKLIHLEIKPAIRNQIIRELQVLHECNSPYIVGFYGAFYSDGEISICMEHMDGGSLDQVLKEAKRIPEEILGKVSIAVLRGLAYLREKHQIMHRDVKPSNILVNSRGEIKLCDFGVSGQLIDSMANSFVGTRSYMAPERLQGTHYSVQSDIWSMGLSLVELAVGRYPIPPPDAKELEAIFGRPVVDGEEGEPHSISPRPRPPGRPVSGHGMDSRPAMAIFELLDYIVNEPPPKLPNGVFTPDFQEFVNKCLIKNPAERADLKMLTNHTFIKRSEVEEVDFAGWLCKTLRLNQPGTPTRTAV

In the case of `CN(C)CC#Cc1ccc2[nH]c3c(c2c1)-c1nc(N)ncc1CCC3`, in test [1], the % of control worked out at 9.6%. In the case of `Cc1ccc(-c2ccc3c(ccc4sc5c(c43)NC[C@@H](C)NC5=O)n2)cn1`, the % of inhibition in test [2] stood at 90%. Turning to `CN(C)CCCOc1ccc(-c2cc(NCCCn3cccn3)nc(S(C)(=O)=O)n2)cc1`, the dTM on Peregrin (Homo sapiens) was less than 2 K. Turning to `Nc1cnc(N2CCc3cc(S(=O)(=O)Nc4c(F)cc(Cl)cc4F)cc(N4CCCC4=O)c32)nc1` [TP-020n], in test [3], the % of control was 93%.
